These results are taken from patent US20250361214A1, “TRIAZINE LIPIDS, LIPID SYNTHESIS, AND METHODS FOR INHIBITING CANONICAL NFKB TRANSCRIPTIONAL ACTIVITY” (University of Kentucky Research Foundation, priority 2022, published 2025).

The test system of one series is canonical NFKB. The experiment in a line: THP-1-Blue NFKB reporter (SEAP) assay. Format: cell-based, human. Particulars: THP-1-Blue cells stimulated with TNFα.
A further series relates to plasmid DNA. The experiment in a line: Gel shift assay using plasmid DNA. It counts as binding. As to conditions: 1:1 molar ratio cationic lipid and DOPE, agarose gel. The method, then: Gel Shift Assays Using Plasmid DNA. Nanoparticles consisting of a 1:1 molar ratio of cationic lipid/DOPE were rehydrated in a 20 mM HEPES solution at pH 4. […] The gels were visualized and photographed using a Bio-Rad ChemiDoc XR system using the manufacturer's software.
For orientation: In EMSA bound probe runs differently from free probe, usually more slowly.

The subject of another series is HeLa cells. The experiment in a line: Transfection of luciferase plasmid. Format: cell-based. The method, then: Transfection of Luciferase Plasmid and Cell Viability. HeLa cells cultured in EMEM (ATCC) supplemented with 10% fetal bovine serum were transferred to a 96 well plate, in quadruplicate, at a density of 20,000 cells per well and incubated for 24 hours at 37° C. in 5% CO2. Liposomes made with a 1:1 ratio of DOPE and TZ lipid were added to 200 ng pGL3 Luciferase Reporter Vector (Promega) at N:P ratios of 2.5, 5 and 10, and incubated at 37° C. for 10 minutes before being diluted in 100 μL of nonsupplemented EMEM and added to the cells. Following a four hour incubation at 37° C., the media was changed, and the cells were incubated for another twenty hours, at which point the cells were lysed with a cell culture lysis reagent at pH 7.8 composed of 25 mM Tris-phosphate buffer, 0.7 g L^−1 1,2-diaminocyclohexane, 10% glycerol, 1% Triton X-100, and 1% protease inhibitor cocktail (Millipore). Total protein content was determined with a bicinchoninic acid assay (G-Biosciences) and luciferase protein expression was quantified by a luciferase assay (Promega). Cell viability was assessed using a Cell Titer Blue assay kit (Promega) based on the manufacturer's instructions. In each of the three independent experiments performed, transfection was compared with cells treated with Lipofectamine 3000 (Thermo), following the manufacturer's instructions, and with DNA treated cells.

Series [1] is described as follows: Size and charge determination of nanoparticles (Zetasizer Nano ZS), Example 1. It counts as physicochemical. The text has this:
Size and Charge Determination.

Series [2] is described as follows: Differential scanning calorimetry, transition temperature (Tm) of lipids. It counts as physicochemical. As to conditions: liposomes of pure lipid, 10 mM in 20 mM HEPES, DSC. The method, then:
Differential Scanning calorimetery. The transition temperature (Tm) of the lipids was determined using a multicell differential scanning calorimeter (TA Instruments). Liposomes were made with triazine lipids at a concentration of 10 mM in 20 mM HEPES buffer. These were heated to 60° C. and sonicated until the solution was translucent. For Tm determination, 250 μL of the liposome solution was transferred into reusable hastelloy ampoules while 250 μL of the HEPES solution was transferred to the third ampoule, leaving the reference ampoule empty. […] Data was collected over a range of 10-110° C. at a rate of 2° C. min-1 in a heat-cool-heat cycle. After the run was complete, the CpCalc 2.1 software package was used to convert the raw data into a molar heat capacity and the data from the second heating cycle were processed using Microsoft Excel.

For the next series, the system named is C57BL/6J mice. The experiment in a line: In vivo toxicity of cationic lipid nanoparticles (ALT, IL-6, SCr, mortality).
A further series can be described thus: in vitro. Format: cell-based. Particulars: female, C57BL/6J, mouse. The method, then: (§1) Cell Culture of Bone Marrow-Derived Macrophages. […] After 7 days, the cells were transferred to tissue culture 96 well plates (Corning) at a density of 100,000 in 20 μL of medium and allowed to settle overnight for subsequent assays.
(§2) Lactate Dehydrogenase Release (LDH) Toxicity Assay. For determination of cytotoxicity, mature bone marrow-derived macrophages (BMDM) were treated with 20 μL of the lipids (concentrations denoted in figure legend) diluted in 20 mM HEPES buffer, with HEPES buffer as negative control and 10% Triton X-100 as positive control. After 24 hours, the 96 well plates were centrifuged at 200×g for 5 minutes to remove debris and 100 μL of media was transferred to an untreated flat-bottom 96 well plate. Next, 100 μL of LDH reaction reagent purchased from Cayman Chemical (Ann Arbor, MI) was added to each and allowed to sit for 30 minutes at 37° C. Absorbance at 490 and 680 nm were measured using a BioTek Synergy H1 plate reader and the data were processed using Microsoft Excel. Mean values from triplicates are shown for one of two independent experiments.

In series [3] the test system is bone marrow derived macrophages. The experiment in a line: in vitro. Format: cell-based. As to conditions: female, C57BL/6J, mouse, 24 h. The method, then:
as §1, §2

A further series relates to murine macrophages. As to conditions: incubation of murine macrophages; cited from earlier work.
Another series relates to cIAP. As to conditions: cited from earlier work.
Setting [4] is: 20 mM lipid, i.p., versus baseline.

pIC50: −log10 of the molar value. A value given as a limit tells only on which side of the number the result lay.

For `CCCCCCCC/C=C\CCCCCCCC(=O)OC[C@@H](COP(=O)(O)OCCN)OC(=O)CCCCCCC/C=C\CCCCCCCC` (stereo in doubt) [DOPE, 1,2-dioleoyl-sn-glycero-3-phosphoethanolamine, reference compound], the “canonical NFKB inhibition” value with canonical NFKB is on record as “exhibited no activity”. Moreover, the “N:P ratio at which nucleic acid is complexed / migration inhibited” value in the series with plasmid DNA was “unable to prevent migration”.

A word on the IC50: it is the point on the concentration scale where inhibition reaches its midpoint. For the compound `CCCCCCCCCCCCN(CCCCCCCCCCCC)c1nc(NCCCN(C)C)nc(NCCCN(C)C)n1` [Lipid 9], in the series with HeLa cells (TZ lipid:DOPE 1:1, compared with naked plasmid), the “plasmid transfection (luciferase)” value is listed as “better efficacy than the lipids with C18 tails”. In addition, in the series with HeLa cells (average, lipid 9:DOPE 1:1 at an N:P ratio of 5, 200 ng pGL3), the luciferase expression came out at 462 RLU per mg. Moreover, the PDI in series [1] (nanoparticles of pure lipid (Table 1)) was 0.24 ± 0.00. This compound had a Size in series [1] (nanoparticles of pure lipid, 1 mM, 25° C. (Table 1)) of 159 ± 1 nm. The same compound yielded a Charge in series [1] (zeta potential, nanoparticles of pure lipid (Table 1)) of 45 ± 2 mV. In series [2], the Tm is < 10 °C. Also, in the series on C57BL/6J mice (10 mM lipid, i.p.), the deaths entry is “one mouse dying”, the “interleukin 6 (IL-6)” value is on record as “statistically significant increases” and the “serum alanine aminotransferase (ALT)” value was “statistically significant increases”. In the series on C57BL/6J mice (20 mM lipid, i.p.), the deaths entry was “three of the ten mice in this group died”. In the series with C57BL/6J mice (setting [4]), the “interleukin 6 (IL-6)” value is “significant elevations”, the “serum alanine aminotransferase (ALT)” value was “significant elevations” and the “serum creatinine (SCr)” value was “elevated but did not reach statistical significance”. In addition, the “in vivo toxicity (overall)” value with C57BL/6J mice (100 μL cationic lipid nanoparticles i.p.) was “confers significant toxicity and mortality”. In addition, the “visual examination of internal organs” value with C57BL/6J mice (72 hours, 10 and 20 mM) was “significant inflammation and swelling throughout the intestines and abdominal cavity”. For the same compound, in “in vitro”, the IC50 at 24 h is 337 µM. Besides, the LD50 in series [3] is 337 mM.

As to `CC[C@H]1OC(=O)[C@H](C)[C@@H](O[C@H]2C[C@@](C)(OC)[C@@H](O)[C@H](C)O2)[C@H](C)[C@@H](O[C@@H]2O[C@H](C)C[C@H](N(C)C)[C@H]2O)[C@](C)(O)C[C@@H](C)CN(C)[C@H](C)[C@@H](O)[C@]1(C)O` [azithromycin], in the series with murine macrophages, the IKKβ expression result is recorded as “increases the overall expression of IKβ kinase (IKKB)”.

As a reminder, the pIC50 is −log10 of the IC50, conventionally taken in molar units. Regarding `CC[C@H](NC(=O)[C@H](C)NC)C(=O)N1C[C@@H](O)C[C@H]1Cc1c(-c2[nH]c3cc(F)ccc3c2C[C@@H]2C[C@H](O)CN2C(=O)[C@H](CC)NC(=O)[C@H](C)NC)[nH]c2cc(F)ccc12` [birinapant], the pIC50 with cIAP was 7.30.
